Columns and labels:
[1] = system: previously untreated metastatic renal cell carcinoma (mRCC); experiment: IMmotion150 phase 2 randomized trial: efficacy (PFS, ORR per RECIST v1.1, IRF); assay type: in vivo, human; details: IRF-assessed
Protocol: A phase II clinical study, IMmotion150 (NCT01984242), was performed to evaluate the safety and tolerability of atezolizumab, alone or in combination with bevacizumab, as compared to sunitinib in patients with previously untreated metastatic renal cell carcinoma (mRCC). Integrated tumor genomic analyses were also performed to correlate molecular biomarkers with observed clinical outcomes in the phase II study.
The primary objective of this phase 2 trial was to evaluate the efficacy of atezolizumab+bevacizumab and atezolizumab monotherapy compared with sunitinib.
The original primary endpoint was PFS per Response Evaluation Criteria In Solid Tumors version 1.1 (RECIST v1.1) via IRF in the ITT population. Although patients were stratified by ≥5% PD-L1 expression on IC, the definition of PD-L1 positivity was revised from ≥5% to ≥1% PD-L1 expression on IC, based on phase 1a data, and the study protocol was amended to create PD-L1 expression on IC as a coprimary endpoint of IRF-assessed PFS. […] Secondary endpoints included investigator (INV)-assessed PFS, ORR, and duration of response (DOR) per RECIST v1.1, overall survival (OS), patient-reported outcomes, and safety. Key exploratory objectives included evaluation of the relationship between the expression of predictive and prognostic exploratory biomarkers and their association with disease status and efficacy as defined by ORR and PFS.
During the study, each cycle was six weeks (42 days) in duration, and data on tumor measurement and survival status were collected for evaluation of PFS, milestone PFS (at 24, 52, and 76 weeks), OS, and ORR per RECIST v1.1. Tumor assessments occurred at baseline and every 12 weeks ±five business days after Cycle 1, Day 1, or more frequently if clinically indicated. Patients who discontinued first-line treatment or crossover treatment were followed up for survival approximately every three months until death, withdrawal of consent, loss to follow-up, or study termination. Patients who discontinued study treatment for reasons other than disease progression (e.g., toxicity) continued to undergo scheduled tumor assessments (every 12 weeks) until death, disease progression per RECIST v1.1, withdrawal of consent, or study termination, whichever occurred first.
Kaplan-Meier methodology was used to estimate the median PFS for each treatment arm, and Kaplan-Meier curves were produced. The primary analysis was triggered when 140 INV-PFS events occurred among patients treated with atezolizumab+bevacizumab and with sunitinib or among patients treated with atezolizumab alone and with sunitinib, whichever occurred later. The HR estimates and their 95% CIs were determined by using the stratified Cox proportional hazards model. The stratification factors included prior nephrectomy, tumor PD-L1 status, and MSKCC score and were determined based on data from the electronic case report form; if such data were missing, data collected by the IxRS at the time of randomization were used. Tumor specimens were prospectively tested for PD-L1 expression on ICs by a central laboratory using the SP142 IHC assay (VENTANA, Tucson, Ariz.). IC staining was defined as follows: any discernible PD-L1 staining of any intensity in IC covering <1% or absent (ICO), between ≥1% and <5% (IC1), between ≥5% and <10% (IC2), or ≥10% (IC3) of tumor area occupied by tumor cells, associated intratumoral, and contiguous peri-tumoral desmoplastic stroma.

[2] = IMmotion150 phase 2 randomized trial: safety (adverse events); details: for Arthralgia / Constipation / Cough / Decreased appetite / Diarrhea / Dysgeusia / Epistaxis / Fatigue / Headache / Hypertension / Infections and infestations / Mucosal inflammation / Nausea / Palmar-plantar erythrodysesthesia syndrome / Proteinuria / Pruritus / Pyrexia / Rash / Stomatitis / Vomiting: AEs occurring in ≥20% of patients in any arm; for Treatment-related AE: all grade; for AEs leading to death: events: footnote a of Table 23;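 as to all read-outs here: Open-label multicenter randomized phase 2 trial with three treatment arms, safety set restricted to patients who actually received study drug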
Protocol: Study treatment consisted of atezolizumab 1200 mg fixed intravenous dose +bevacizumab 15 mg/kg every three weeks, atezolizumab 1200 mg fixed intravenous dose every three weeks, or sunitinib 50 mg/day orally for four weeks followed by two weeks of rest. On disease progression (as assessed by the investigator per RECIST v1.1), patients randomized to atezolizumab monotherapy or sunitinib had the option to cross over and receive the atezolizumab+bevacizumab combination in some regions (option was not available in Europe). In the absence of unacceptable toxicity, treatment with the combination continued until evidence of progressive disease. Where permitted, patients in the atezolizumab-containing arms could continue to be treated beyond disease progression per RECIST v1.1 until lack of clinical benefit; those in non-European nations could cross over to atezolizumab+bevacizumab therapy at any time after disease progression per RECIST v1.1, provided all eligibility criteria were met.

[3] = PD-L1+ population (≥1% PD-L1 expression on IC)
[4] = AE of special interest, All Grade
[5] = AE of special interest, Grade 3/4

CCN(CC)CCNC(=O)c1c(C)[nH]c(/C=C2\C(=O)Nc3ccc(F)cc32)c1C [Sunitinib, N-[2-(Diethylamino)ethyl]-5-[(Z)-(5-fluoro-2-oxo-1,2-dihydro-3H-indol-3-ylidene)methyl]-2,4-dimethyl-1H-pyrrole-3-carboxamide]
complete response (CR) ([1]; ITT population): 5% | median progression-free survival (PFS) ([1]; ITT population): 8.4 months | objective response rate (ORR) ([1]; ITT population): 29% | partial response (PR) ([1]; ITT population): 24% | complete response (CR) ([1]; PD-L1+ patients): 7% | objective response rate (ORR) ([1]; PD-L1+ patients): 27% | partial response (PR) ([1]; PD-L1+ patients): 20% | median progression-free survival (PFS) [1, 3]: 7.8 months | AEs leading to death ([2]; % of patients): (2%) | AEs leading to dose modification or interruption ([2]; % of patients): (70%) | AEs leading to withdrawal from treatment ([2]; % of patients): (10%) | Grade 3/4 AEs, any cause ([2]; % of patients): (69%) | Treatment-related AEs leading to death ([2]; % of patients): (2%) | Treatment-related AEs leading to withdrawal from treatment ([2]; % of patients): (9%) | Treatment-related grade 3/4 AEs ([2]; % of patients): (57%) | Treatment-related AEs leading to withdrawal from treatment ([2]; % of patients, listed as sunitinib): 9% | Decreased blood cortisol/adrenal insufficiency [2, 4]: 0 n | Pneumonitis [2, 4]: 0 n | Colitis [2, 5]: 0 n | Decreased blood cortisol/adrenal insufficiency [2, 5]: 0 n | Pneumonitis [2, 5]: 0 n | TSH decreased/hypothyroidism [2, 5]: 0 n | TSH increased/hyperthyroidism [2, 5]: 0 n | Arthralgia [2]: (18.0%) | Constipation [2]: (30.0%) | Cough [2]: (25.0%) | Decreased appetite [2]: (29.0%) | Diarrhea [2]: (59.0%) | Dysgeusia [2]: (30.0%) | Epistaxis [2]: (12.0%) | Fatigue [2]: (70.0%) | Headache [2]: (23.0%) | Hypertension [2]: (35.0%) | Infections and infestations [2]: (32.0%) | Mucosal inflammation [2]: (33.0%) | Nausea [2]: (45.0%) | Palmar-plantar erythrodysesthesia syndrome [2]: (40.0%) | Proteinuria [2]: (9.0%) | Pruritus [2]: (10.0%) | Pyrexia [2]: (12.0%) | Rash [2]: (13.0%) | Stomatitis [2]: (25.0%) | Vomiting [2]: (20.0%) | Arthralgia ([2]; number of patients): 18 | Constipation ([2]; number of patients): 30 | Cough ([2]; number of patients): 25 | Decreased appetite ([2]; number of patients): 29 | Diarrhea ([2]; number of patients): 59 | Dysgeusia ([2]; number of patients): 30 | Epistaxis ([2]; number of patients): 12 | Fatigue ([2]; number of patients): 70 | Headache ([2]; number of patients): 23 | Hypertension ([2]; number of patients): 35 | Infections and infestations ([2]; number of patients): 32 | Mucosal inflammation ([2]; number of patients): 33 | Nausea ([2]; number of patients): 45 | Palmar-plantar erythrodysesthesia syndrome ([2]; number of patients): 40 | Proteinuria ([2]; number of patients): 9 | Pruritus ([2]; number of patients): 10 | Pyrexia ([2]; number of patients): 12 | Rash ([2]; number of patients): 13 | Stomatitis ([2]; number of patients): 25 | Vomiting ([2]; number of patients): 20 | Treatment-related AE ([2]; % of patients): (96%) | Treatment-related AE ([2]; number of patients): 96 n | AEs leading to death: events [2]: sudden death (related), intestinal hemorrhage (related) | related AE leading to treatment discontinuation: increased blood creatinine ([2]; in vivo): 2% | related AE leading to treatment discontinuation: palmar-plantar erythrodysesthesia syndrome ([2]; in vivo): 2% | AEs leading to death ([2]; number of patients): 2 n | AEs leading to dose modification or interruption ([2]; number of patients): 70 n | AEs leading to withdrawal from treatment ([2]; number of patients): 10 n | All-grade AEs, any cause ([2]; number of patients): 99 n | Grade 3/4 AEs, any cause ([2]; number of patients): 69 n | Treatment-related AEs leading to death ([2]; number of patients): 2 n | Treatment-related AEs leading to withdrawal from treatment ([2]; number of patients): 9 n | Treatment-related grade 3/4 AEs ([2]; number of patients): 57 n

Atezo: anti-PD-L1 antibody atezolizumab (CAS Registry Number: 1422185-06-5), Genentech, also known as MPDL3280A
Stratified PFS HR (95% CI) vs sunitinib ([1]; ITT population): 1.19 | complete response (CR) ([1]; ITT population): 11% | median progression-free survival (PFS) ([1]; ITT population): 6.1 months | objective response rate (ORR) ([1]; ITT population): 25% | partial response (PR) ([1]; ITT population): 14% | Stratified PFS HR (95% CI) vs sunitinib ([1]; PD-L1+ (PD-L1 IHC IC1/2/3, ≥1%)): 1.03 | complete response (CR) ([1]; PD-L1+ patients): 15% | objective response rate (ORR) ([1]; PD-L1+ patients): 28% | partial response (PR) ([1]; PD-L1+ patients): 13% | median progression-free survival (PFS) [1, 3]: 5.5 months | Stratified PFS HR (95% CI) vs sunitinib ([1]; PD-L1 IHC IC2/3 (≥5%)): 0.64 | AEs leading to death ([2]; % of patients): (2%) | AEs leading to death: events [2]: hematophagic hitiocytosis, lower respiratory tract infection | AEs leading to death ([2]; number of patients): 2 n | Treatment-related AEs leading to death ([2]; number of patients): 0 n

Reference: patent US11402382B2, “Diagnostic and therapeutic methods for cancer” (Genentech, Inc., priority 2017, dated 2022)
